Several values for one entry are separate records, joined by “and”; a condition that tells them apart may be missing. Equal entries are not always repeated. Toxic doses and inconclusive results are not listed.
Tested on: BDF1 mice, P388 leukemia ip, median survival T/C
Test: NCI In Vivo Anticancer Drug Screen. Data for tumor model P388 Leukemia (intraperitoneal) in B6D2F1 (BDF1) mice
Details: endpoint: median survival time, higher = longer survival
Procedure, shortened: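 Transplantable tumour in mice; compound vs vehicle dosing; survival scored; ratio of treated to control reported.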

[1] = dose: 50.0 mg/kg/injection, schedule: Q01DX009 (ip), vehicle: saline with Tween-80
[2] = dose: 100.0 mg/kg/injection, schedule: Q01DX009 (ip), vehicle: saline with Tween-80
[3] = dose: 200.0 mg/kg/injection, schedule: Q01DX009 (ip), vehicle: saline with Tween-80
[4] = dose: 400.0 mg/kg/injection, schedule: Q04DX003 (ip), vehicle: saline

CCCCCCC(=O)CC(SCC)c1ccc(Cl)cc1Cl (centres undefined)
T/C [1]: 98 % of control
T/C [2]: 104 % of control
T/C [3]: 104 % of control

O=[N+]([O-])c1cc(S(=O)(=O)NCc2ccco2)ccc1N/N=C/c1ccccn1
T/C (dose: 0.78 mg/kg/injection, schedule: Q01DX009 (ip), vehicle: saline with Tween-80): 99 % of control
T/C (dose: 1.56 mg/kg/injection, schedule: Q01DX009 (ip), vehicle: saline with Tween-80): 99 % of control
T/C (dose: 3.12 mg/kg/injection, schedule: Q01DX009 (ip), vehicle: saline with Tween-80): 95 % of control

CCCCCCCCCCCCCCCCS(=O)(=O)NN
T/C (dose: 12.5 mg/kg/injection, schedule: Q01DX009 (ip), vehicle: other): 91 % of control
T/C (dose: 25.0 mg/kg/injection, schedule: Q01DX009 (ip), vehicle: other): 96 % of control
T/C (dose: 50.0 mg/kg/injection, schedule: Q01DX009 (ip), vehicle: other): 102 % of control

CCc1c(CC(=O)O)c2cc(C)ccc2n1Cc1ccc(Cl)cc1
T/C (dose: 25.0 mg/kg/injection, schedule: Q01DX009 (ip), vehicle: saline with Tween-80): 104 % of control
T/C [1]: 109 % of control and 118 % of control
T/C [2]: 104 % of control and 109 % of control

O=C1/C(=C/c2ccccc2)Cc2cccc(O)c21
T/C (dose: 37.5 mg/kg/injection, schedule: Q01DX001 (ip), vehicle: saline with Tween-80): 100 % of control
T/C (dose: 75.0 mg/kg/injection, schedule: Q01DX001 (ip), vehicle: saline with Tween-80): 100 % of control
T/C (dose: 150.0 mg/kg/injection, schedule: Q01DX001 (ip), vehicle: saline with Tween-80): 100 % of control

N=C(N)c1ccc(OCCCOc2ccc(C(=N)N)cc2Br)c(Br)c1
T/C (dose: 2.2 mg/kg/injection, schedule: Q01DX009 (ip), vehicle: saline): 100 % of control
T/C (dose: 3.3 mg/kg/injection, schedule: Q01DX009 (ip), vehicle: saline): 118 % of control
T/C (dose: 5.0 mg/kg/injection, schedule: Q01DX009 (ip), vehicle: saline): 118 % of control
T/C (dose: 25.0 mg/kg/injection, schedule: Q01DX009 (ip), vehicle: saline sonified): 122 % of control

CCOC1(CC)CN(Cc2ccccc2)CCO1 (centres undefined)
T/C (dose: 100.0 mg/kg/injection, schedule: Q01DX001 (ip), vehicle: Klucel (hydroxypropylcellulose) (HPC)): 121 % of control
T/C (dose: 200.0 mg/kg/injection, schedule: Q01DX001 (ip), vehicle: Klucel (hydroxypropylcellulose) (HPC)): 121 % of control
T/C (dose: 400.0 mg/kg/injection, schedule: Q01DX001 (ip), vehicle: Klucel (hydroxypropylcellulose) (HPC)): 115 % of control

CCCC(O)C(NC(=O)CCl)C(=O)O (centres undefined)
T/C (dose: 125.0 mg/kg/injection, schedule: Q01DX005 (ip), vehicle: other): 104 % of control
T/C (dose: 250.0 mg/kg/injection, schedule: Q01DX005 (ip), vehicle: other): 104 % of control

C[C@]12CCC(=O)C=C1CC[C@H]1[C@@H]3C[C@@H](O)[C@](O)(C(=O)CO)[C@@]3(C)C[C@H](O)[C@@]12F
T/C (dose: 100.0 mg/kg/injection, schedule: Q01DX009 (ip), vehicle: saline): 108 % of control
T/C (dose: 100.0 mg/kg/injection, schedule: Q04DX003 (ip), vehicle: saline): 108 % of control
T/C (dose: 200.0 mg/kg/injection, schedule: Q01DX009 (ip), vehicle: saline): 87 % of control
T/C (dose: 200.0 mg/kg/injection, schedule: Q04DX003 (ip), vehicle: saline): 116 % of control
T/C [4]: 100 % of control

COc1cc2c(cc1OC)C(=O)C(c1ccc3c(c1)OCO3)CC2 (centres undefined)
T/C (dose: 12.5 mg/kg/injection, schedule: Q01DX009 (ip), vehicle: water): 98 % of control
T/C (dose: 12.5 mg/kg/injection, schedule: Q04DX003 (ip), vehicle: water): 95 % of control
T/C (dose: 25.0 mg/kg/injection, schedule: Q01DX009 (ip), vehicle: water): 93 % of control
T/C (dose: 25.0 mg/kg/injection, schedule: Q04DX003 (ip), vehicle: water): 101 % of control
T/C (dose: 50.0 mg/kg/injection, schedule: Q01DX009 (ip), vehicle: water): 88 % of control and 92 % of control
T/C (dose: 50.0 mg/kg/injection, schedule: Q04DX003 (ip), vehicle: water): 100 % of control
T/C (dose: 75.0 mg/kg/injection, schedule: Q01DX009 (ip), vehicle: water): 93 % of control
T/C (dose: 100.0 mg/kg/injection, schedule: Q01DX009 (ip), vehicle: water): 87 % of control
T/C (dose: 100.0 mg/kg/injection, schedule: Q04DX003 (ip), vehicle: water): 88 % of control
T/C (dose: 200.0 mg/kg/injection, schedule: Q01DX009 (ip), vehicle: water): 91 % of control

O=C(NCCCl)N(CCCl)C(=O)Oc1c(Cl)cc(Cl)cc1Cl
T/C (dose: 50.0 mg/kg/injection, schedule: Q01DX005 (ip), vehicle: saline with Tween-80): 100 % of control
T/C (dose: 100.0 mg/kg/injection, schedule: Q01DX005 (ip), vehicle: saline with Tween-80): 112 % of control
T/C (dose: 200.0 mg/kg/injection, schedule: Q01DX005 (ip), vehicle: saline with Tween-80): 100 % of control

CC[CH2][Pb]([CH2]CC)([CH2]CC)[O]C(=O)C(F)(F)F
T/C (dose: 4.0 mg/kg/injection, schedule: Q01DX009 (ip), vehicle: Klucel (hydroxypropylcellulose) (HPC)): 113 % of control
T/C (dose: 4.0 mg/kg/injection, schedule: Q01DX009 (ip), vehicle: saline with Tween-80): 122 % of control
T/C (dose: 6.0 mg/kg/injection, schedule: Q01DX009 (ip), vehicle: Klucel (hydroxypropylcellulose) (HPC)): 111 % of control
T/C (dose: 6.0 mg/kg/injection, schedule: Q01DX009 (ip), vehicle: saline with Tween-80): 150 % of control

C[C@@H]1C[C@@]2(C)[C@@H](CC[C@@H]3[C@@H]2CC[C@]2(C)OC(=O)CC[C@@H]32)CC1=O
T/C (dose: 100.0 mg/kg/injection, schedule: Q04DX003 (ip), vehicle: alcohol): 105 % of control
T/C (dose: 200.0 mg/kg/injection, schedule: Q04DX003 (ip), vehicle: alcohol): 95 % of control
T/C (dose: 264.0 mg/kg/injection, schedule: Q04DX003 (ip), vehicle: saline): 95 % of control and 110 % of control
T/C [4]: 105 % of control

Cc1noc2ncnc(NCCCN(C)C)c12
T/C [1]: 99 % of control
T/C [2]: 99 % of control
T/C [3]: 102 % of control

c1ccc2c(c1)CC1CCCCN1C2 (centres undefined)
T/C (dose: 12.5 mg/kg/injection, schedule: Q01DX009 (ip), vehicle: Klucel (hydroxypropylcellulose) (HPC)): 100 % of control
T/C (dose: 12.5 mg/kg/injection, schedule: Q01DX009 (ip), vehicle: saline): 100 % of control
T/C (dose: 25.0 mg/kg/injection, schedule: Q01DX009 (ip), vehicle: Klucel (hydroxypropylcellulose) (HPC)): 105 % of control
T/C (dose: 25.0 mg/kg/injection, schedule: Q01DX009 (ip), vehicle: saline): 90 % of control
T/C (dose: 37.5 mg/kg/injection, schedule: Q04DX003 (ip), vehicle: saline): 95 % of control
T/C (dose: 50.0 mg/kg/injection, schedule: Q01DX009 (ip), vehicle: Klucel (hydroxypropylcellulose) (HPC)): 100 % of control
T/C (dose: 50.0 mg/kg/injection, schedule: Q01DX009 (ip), vehicle: saline): 110 % of control
T/C (dose: 75.0 mg/kg/injection, schedule: Q04DX003 (ip), vehicle: saline): 86 % of control

Cc1[nH]c(N)nc(=S)c1CCC(=O)O
T/C (dose: 100.0 mg/kg/injection, schedule: Q04DX003 (ip), vehicle: Klucel (hydroxypropylcellulose) (HPC)): 100 % of control
T/C (dose: 200.0 mg/kg/injection, schedule: Q04DX003 (ip), vehicle: Klucel (hydroxypropylcellulose) (HPC)): 104 % of control
T/C (dose: 400.0 mg/kg/injection, schedule: Q04DX003 (ip), vehicle: Klucel (hydroxypropylcellulose) (HPC)): 95 % of control

Nc1nc(N)nc(CCP(CCc2nc(N)nc(N)n2)CCc2nc(N)nc(N)n2)n1
T/C (dose: 50.0 mg/kg/injection, schedule: Q04DX003 (ip), vehicle: saline sonified): 100 % of control
T/C (dose: 100.0 mg/kg/injection, schedule: Q04DX003 (ip), vehicle: saline sonified): 110 % of control
T/C (dose: 200.0 mg/kg/injection, schedule: Q04DX003 (ip), vehicle: saline sonified): 110 % of control

CN=S(=O)(OCCCCCCCCCOS(=O)(=NC)c1ccc(C)cc1)c1ccc(C)cc1 (centres undefined)
T/C (dose: 12.5 mg/kg/injection, schedule: Q01DX009 (ip), vehicle: saline with Tween-80): 108 % of control
T/C [1]: 117 % of control

Reference: PubChem BioAssay AID328 (DTP/NCI, 2004)
